Laboratory results as given in patent US4767765A, “N-substituted-N-[3-(1,2,4-triazolo-[4,3-b]pyridazin-6-yl )phenyl]alkanamides, carbamates and ureas” (American Cyanamid Company, priority 1987, dated 1988).

What was measured:
[1] = tested on: Clonic Seizures Caused by Pentylenetetrazole in Rats; assay: Protection against clonic seizures caused by pentylenetetrazole in rats; type: in vivo; conditions: Rattus norvegicus, oral or i.p., pentylenetetrazole 23 mg/kg i.v. at 30 or 60 minutes, read-out: % of Rats Protected
Description: The antianxiety and anticonvulsant properties of the novel compounds of the present invention were established in a test which indicates both anxiolytic and antiepileptic activity by the measure of protection from convulsions resulting from the administration of pentylenetetrazole. Single or graded dose levels of the test compounds were administered orally or intraperitoneally in a 2% starch vehicle, containing 0.5% v/v polyethylene glycol and one drop of Polysorbate 80 to groups of at least 4 rats. At 30 or 60 minutes, the rats were treated intravenously with pentylenetetrazole at a dose of 23 mg/kg of body wieght. This dose is estimated to cause clonic seizures in 99% of unprotected rats. It has been reported [R. T. Hill and D. H. Tedeschi, "Animal Testing and Screening Procedures in Evaluating Psychotropic Drugs" in An Introduction to Psychopharmacology, Eds. R. R. Rech and K. E. Moore, Raven Press, New York, pp 237-288 (1971,] that there is a high degree of correlation between antagonism of pentylenetetrazole seizures in rats and antianxiety and anticonvulsant effects in higher warm-blooded animals. The results of this test on representative compounds of this invention are shown in Table I.

[2] = tested on: Nonconditioned Passive Avoidance in Rats; assay: Nonconditioned passive avoidance test in rats (conflict procedure); type: in vivo, rat (Wistar); design: key: Active: considered active if the number of shocks received by the test group is significantly higher than the control group by the Mann-Witney U test; conditions: oral or i.p., 30 or 60 minutes
Description: Another test which has been used to assess anti-anxiety effects is a non-conditioned passive avoidance procedure described by J. R. Vogel, B. Beer and D. E. Clody, "A Simple and Reliable Conflict Procedure for Testing Anti-anxiety Agents", Psychopharmacologia, 21, 1-7 (1971). A conflict situation is induced in rats by a modification of this method.
Groups of 6 naive, Wistar strain rats, weighing 200-240 g each were deprived of water for 48 hours and food for 24 hours. The test compounds were administered in single or graded, oral or intraperitoneal doses, suspended in a 2% starch vehicle containing 0.5% v/v polyethylene glycol and one drop of polysorbate 80. Control animals received the vehicle alone. At 30 or 60 minutes each rat was placed in an individual plexiglass chamber. Water was available ad libitum from a tap located in the rear of the chamber. A 0.7 milliampere DC shocking current was established between the stainless steel grid floor and the tap. After 20 licks of non-shocked drinking, a shock was delivered for 2 seconds and then further shocks were delivered on a ratio of one shock for 2 seconds for every 20 licks. This was continued for a total of 3 minutes. The number of shocks taken by each rat during the 3 minute interval was recorded and compared to a control group. […]

[3] = tested on: Brain-Specific Receptors of Rats; assay: Inhibition of the binding of 3H-benzodiazepine to brain-specific receptors of rats; design: species or system rat (Wistar); conditions: 3H-diazepam 1.5 nM or 3H-flunitrazepam 1.0 nM; rat cortex P2 fraction, pH 7.4, 30 minutes in ice; test concentration not given

CCN(C(=O)OC)c1cccc(-c2ccc3nncn3n2)c1 [Ethyl[3-(1,2,4-triazolo[4,3-b]pyridazin-6-yl)phenyl]carbamic acid, methyl ester]
responders at 25 mg/kg [1]: 100% | Results (nonconditioned passive avoidance) ([2]; dose 25 mg/kg): Active | % Inhibition [3]: 78%

CCN(C(=O)OC)c1cccc(-c2ccc3nnc(C)n3n2)c1 [Ethyl[3-(3-methyl-1,2,4-triazolo[4,3-b]pyridazin-6-yl)phenyl]carbamic acid, methyl ester]
responders at 3.1 mg/kg [1]: 75% | Results (nonconditioned passive avoidance) ([2]; dose 1.5 mg/kg): Active | % Inhibition [3]: 60%

COC(=O)N(C)c1cccc(-c2ccc3nncn3n2)c1 [Methyl-[3-(1,2,4-triazolo[4,3-b]pyridazin 6-yl)phenyl]carbamic acid, methyl ester]
responders at 25 mg/kg [1]: 25% | % Inhibition [3]: 62%

COC(=O)N(C)c1cccc(-c2ccc3nnc(C)n3n2)c1 [Methyl[3-(3-methyl-1,2,4-triazolo[4,3-b]pyridazin-6-yl)phenyl]carbamic acid, methyl ester]
responders at 25 mg/kg [1]: 100% | Results (nonconditioned passive avoidance) ([2]; dose 3.1 mg/kg): Active | % Inhibition [3]: 62%

Cc1nnc2ccc(-c3cccc(N(C)C(=O)N(C)C)c3)nn12 [N,N,N'-Trimethyl-N'-[3-(3-methyl-1,2,4-triazolo[4,3-b]pyridazin-6-yl)phenyl]urea]
responders at 25 mg/kg [1]: 50% | Results (nonconditioned passive avoidance) ([2]; dose 25 mg/kg): Active

Cc1nnc2ccc(-c3cccc(NC(=O)N(C)C)c3)nn12 [N,N-Dimethyl-N'-[3-(3-methyl-1,2,4-triazolo[4,3-b]pyridazin-6-yl)phenyl]urea]
% Inhibition [3]: 10%

C=CCN(C(C)=O)c1cccc(-c2ccc3nncn3n2)c1 [N-2-Propenyl-N-[3-(1,2,4-triazolo[4,3-b]pyridazin-6-yl)phenyl]acetamide]
% Inhibition [3]: 68%

C#CCN(C(C)=O)c1cccc(-c2ccc3nncn3n2)c1 [N-2-Propynyl-N-[3-(1,2,4-triazolo[4,3-b]pyridazin-6-yl)phenyl]acetamide]
% Inhibition [3]: 49%

CC(=O)N(CC1CC1)c1cccc(-c2ccc3nnc(C)n3n2)c1 [N-(Cyclopropylmethyl)-N-[3-(3-methyl-1,2,4-triazolo[4,3-b]pyridazin-6-yl)phenyl]acetamide]
responders at 12.5 mg/kg [1]: 75% | Results (nonconditioned passive avoidance) ([2]; dose 6.2 mg/kg): Active | % Inhibition [3]: 93%

CCN(C(=O)N(C)C)c1cccc(-c2ccc3nnc(C)n3n2)c1 [N-Ethyl-N',N'-dimethyl-N-[(3-methyl-1,2,4-triazolo[4,3-b]pyridazin-6-yl)phenyl]urea]
responders at 12.5 mg/kg [1]: 75% | Results (nonconditioned passive avoidance) ([2]; dose 3.1 mg/kg): Active

CCN(C(C)=O)c1cccc(-c2ccc3nncn3n2)c1 [N-Ethyl-N-[3-(1,2,4-triazolo[4,3-b]pyridazin-6-yl)phenyl]acetamide]
responders at 25 mg/kg [1]: 100% | Results (nonconditioned passive avoidance) ([2]; dose 12.5 mg/kg): Active | % Inhibition [3]: 78%

CCC(=O)N(CC)c1cccc(-c2ccc3nncn3n2)c1 [N-Ethyl-N-[3-(1,2,4-triazolo[4,3-b]pyridazin-6-yl)phenyl]propanamide]
responders at 3.1 mg/kg [1]: 50% | Results (nonconditioned passive avoidance) ([2]; dose 3.1 mg/kg): Active | % Inhibition [3]: 84%

CCN(C(C)=O)c1cccc(-c2ccc3nnc(N)n3n2)c1 [N-Ethyl-N-[3-(3-amino-1,2,4-triazolo[4,3-b]pyridazin-6-yl)phenyl]acetamide]
% Inhibition [3]: 90%

CCN(C(C)=O)c1cccc(-c2ccc3nnc(C)n3n2)c1 [N-Ethyl-N-[3-(3-methyl-1,2,4-triazolo[4,3-b]pyridazin-6-yl)phenyl]acetamide]
responders at 12.5 mg/kg [1]: 100% | Results (nonconditioned passive avoidance) ([2]; dose 0.8 mg/kg): Active | % Inhibition [3]: 90%

CCC(=O)N(CC)c1cccc(-c2ccc3nnc(C)n3n2)c1 [N-Ethyl-N-[3-(3-methyl-1,2,4-triazolo[4,3-b]pyridazin-6-yl)phenyl]propanamide]
responders at 3.1 mg/kg [1]: 75% | Results (nonconditioned passive avoidance) ([2]; dose 3.1 mg/kg): Active | % Inhibition [3]: 95%

CC(=O)N(C)c1cccc(-c2ccc3nncn3n2)c1 [N-Methyl-N-[3-(1,2,4-triazolo[4,3-b]pyridazin-6-yl)phenyl]acetamide]
responders at 25 mg/kg [1]: 50% | Results (nonconditioned passive avoidance) ([2]; dose 12.5 mg/kg): Active | % Inhibition [3]: 45%

CCC(=O)N(C)c1cccc(-c2ccc3nncn3n2)c1 [N-Methyl-N-[3-(1,2,4-triazolo[4,3-b]pyridazin-6-yl)phenyl]propanamide]
responders at 25 mg/kg [1]: 100% | Results (nonconditioned passive avoidance) ([2]; dose 25 mg/kg): Active | % Inhibition [3]: 56%

CC(=O)N(C)c1cccc(-c2ccc3nnc(N)n3n2)c1 [N-Methyl-N-[3-(3-amino-1,2,4-triazolo[4,3-b]pyridazin-6-yl)phenyl]acetamide]
% Inhibition [3]: 58%

CC(=O)N(C)c1cccc(-c2ccc3nnc(C)n3n2)c1 [N-Methyl-N-[3-(3-methyl-1,2,4-triazolo[4,3-b]pyridazin-6-yl)phenyl]acetamid]
responders at 6 mg/kg ([1]; dose 6.0 mg/kg): 100% | Results (nonconditioned passive avoidance) ([2]; dose 3.1 mg/kg): Active | % Inhibition [3]: 89%

CCC(=O)N(C)c1cccc(-c2ccc3nnc(C)n3n2)c1 [N-Methyl-N-[3-(3-methyl-1,2,4-triazolo[4,3-b]pyridazin-6-yl)phenyl]propanamide]
responders at 12.5 mg/kg [1]: 25% | Results (nonconditioned passive avoidance) ([2]; dose 3.1 mg/kg): Active | % Inhibition [3]: 89%

C=CCN(C(C)=O)c1cccc(-c2ccc3nnc(C)n3n2)c1 [N-[3-(3-Methyl-1,2,4-triazolo[4,3-b]pyridazin-6-yl)phenyl]-N-2-propenylacetamide]
responders at 6.25 mg/kg ([1]; dose 6.25 mg/kg): 100% | Results (nonconditioned passive avoidance) ([2]; dose 25 mg/kg): Active | % Inhibition [3]: 96%

CCCN(C(C)=O)c1cccc(-c2ccc3nnc(C)n3n2)c1 [N-[3-(3-Methyl-1,2,4-triazolo[4,3-b]pyridazin-6-yl)phenyl]-N-propylacetamide]
% Inhibition [3]: 93%

CCC(=O)Nc1cccc(-c2ccc3nnc(C)n3n2)c1 [N-[3-(3-Methyl-1,2,4-triazolo[4,3-b]pyridazin-6-yl)phenyl]propanamide]
% Inhibition [3]: 56%

C#CCN(C(C)=O)c1cccc(-c2ccc3nnc(C)n3n2)c1 [N-[3-(3-Methyl-1,2,4-triazolo[4,3b]pyridazin-6-yl)phenyl]-N-2-propynylacetamide]
responders at 3.1 mg/kg [1]: 100% | Results (nonconditioned passive avoidance) ([2]; dose 1.5 mg/kg): Active | % Inhibition [3]: 90%

COC(=O)Nc1cccc(-c2ccc3nncn3n2)c1 [[3-(1,2,4-Triazolo[4,3-b]pyridazin-6-yl)phenyl]carbamic acid, methyl ester]
% Inhibition [3]: 18%

COC(=O)Nc1cccc(-c2ccc3nnc(C)n3n2)c1 [[3-(3-Methyl-1,2,4-triazolo[4,3-b]pyridazin-6-yl)phenyl]carbamic acid, methyl ester]
Results (nonconditioned passive avoidance) ([2]; dose 25 mg/kg): Active | % Inhibition [3]: 18%
